Reference: ChEMBL document CHEMBL1150915, “Dehydroradiosumin, a trypsin inhibitor from the cyanobacterium Anabaena cylindrica” (J Nat Prod, 1998)
Values after ≈ are worked out from the molar mass of the structure shown. Active and inactive are the calls of the source. The rule behind the calls is not given here.

How the values were obtained:
[1] = Inhibition of trypsin
Plasminogen = Plasminogen (Homo sapiens, UniProt P00747); assay: Inhibition of plasmin
[2] = biological target: Prothrombin (Homo sapiens) (UniProt P00734); assay: Inhibition of thrombin at 100 ug/mL
[3] = Inhibition of chymotrypsin at 100 ug/mL
[4] = Inhibition of elastase at 100 ug/mL
Papain (Carica papaya) = biological target: T1, Papain (Carica papaya) (UniProt P00784); assay: Inhibition of Carica papaya papain at 100 ug/mL
T1 sequence (whole entry): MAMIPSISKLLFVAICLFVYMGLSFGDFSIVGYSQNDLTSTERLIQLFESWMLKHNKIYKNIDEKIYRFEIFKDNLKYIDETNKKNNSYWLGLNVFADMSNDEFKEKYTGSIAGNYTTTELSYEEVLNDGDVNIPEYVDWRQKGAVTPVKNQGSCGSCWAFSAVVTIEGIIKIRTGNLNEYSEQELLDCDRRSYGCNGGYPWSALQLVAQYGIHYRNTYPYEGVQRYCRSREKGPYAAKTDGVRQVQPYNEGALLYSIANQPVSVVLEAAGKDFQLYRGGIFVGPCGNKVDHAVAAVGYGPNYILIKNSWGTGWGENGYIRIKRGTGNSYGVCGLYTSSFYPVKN

Sequence of Plasminogen (P00747 97-580 limits assumed): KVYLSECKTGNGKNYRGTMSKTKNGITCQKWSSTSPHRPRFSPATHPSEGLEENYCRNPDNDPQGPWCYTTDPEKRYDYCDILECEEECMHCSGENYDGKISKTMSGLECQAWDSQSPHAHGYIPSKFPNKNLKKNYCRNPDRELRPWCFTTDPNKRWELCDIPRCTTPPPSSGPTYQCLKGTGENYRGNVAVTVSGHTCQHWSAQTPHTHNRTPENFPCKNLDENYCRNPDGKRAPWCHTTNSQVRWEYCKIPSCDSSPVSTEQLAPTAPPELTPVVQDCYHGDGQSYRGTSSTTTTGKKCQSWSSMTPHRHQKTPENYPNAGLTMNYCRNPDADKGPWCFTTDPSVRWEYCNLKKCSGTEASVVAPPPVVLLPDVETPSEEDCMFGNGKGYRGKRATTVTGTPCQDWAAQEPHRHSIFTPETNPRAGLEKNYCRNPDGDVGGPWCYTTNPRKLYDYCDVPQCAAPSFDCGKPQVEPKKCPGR
Sequence of Plasminogen (P00747 581-810 limits assumed): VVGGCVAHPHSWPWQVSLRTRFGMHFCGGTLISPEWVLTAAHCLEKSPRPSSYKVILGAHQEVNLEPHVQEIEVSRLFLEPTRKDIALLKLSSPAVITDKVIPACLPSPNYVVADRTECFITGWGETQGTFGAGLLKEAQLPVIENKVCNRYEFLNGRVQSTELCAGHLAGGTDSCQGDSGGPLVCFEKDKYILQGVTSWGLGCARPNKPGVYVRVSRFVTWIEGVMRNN

For `CC(=O)N[C@@H](/C=C1/C=C[C@H](N)CC1)C(=O)N[C@@H](/C=C1/C=C[C@H](NC(C)=O)CC1)C(=O)O` [DEHYDRORADIOSUMIN], the IC50 [1] was 0.1 µg/mL (≈ 0.232 µM), the IC50 (Plasminogen) was 209 µM and the Activity [2] was “inactive”. The Activity [3] was “inactive”, the Activity [4] was “inactive” and the Activity (Papain (Carica papaya)) was “inactive”.
